# Measurements reported in PMC8805316, “NanoBRET in C. elegans illuminates functional receptor interactions in real time” (BMC Molecular and Cell Biology, 2022).
# Residues, ends and D or L forms follow the SMILES beside them. No end group written: not given here. *: point of attachment. 5TAMRA = CN(C)c1ccc2c(c1)Oc1cc(N(C)C)ccc1C21OC(=O)c2cc(C(=O)*)ccc21
# Key:
# [1] = target: T1, NPR-11 (Caenorhabditis elegans, UniProt Q18179); assay: cAMP reporter gene assay, transfected HEK293 cells (Fig. S3B); assay type: cell-based, C. elegans; parameters: expressed in transfected cells; host or cells: HEK293 cells, co-transfected with reporter plasmid pGL4.29 [luc2P/CRE/Hygro]
# T1 sequence (Q18179 1-402): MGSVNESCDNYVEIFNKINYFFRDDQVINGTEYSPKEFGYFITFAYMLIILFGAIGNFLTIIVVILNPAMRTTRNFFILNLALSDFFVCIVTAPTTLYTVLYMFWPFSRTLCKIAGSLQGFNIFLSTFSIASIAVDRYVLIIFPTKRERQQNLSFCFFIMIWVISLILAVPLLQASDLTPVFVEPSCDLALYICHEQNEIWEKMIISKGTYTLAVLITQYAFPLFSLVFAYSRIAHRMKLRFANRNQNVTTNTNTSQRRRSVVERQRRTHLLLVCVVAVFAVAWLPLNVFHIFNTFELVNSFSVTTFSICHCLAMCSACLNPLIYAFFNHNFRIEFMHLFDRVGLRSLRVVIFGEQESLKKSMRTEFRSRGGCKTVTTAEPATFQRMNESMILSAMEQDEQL
# Description: All in vitro experiments were carried out using either HEK293 cells (Homo sapiens, embryonic kidney, DSMZ (German Collection of Microorganisms and Cell Cultures) ACC 305) or COS-7 cells (African green monkey, cercopithecus aethiops, kidney, DSMZ (German Collection of Microorganisms and Cell Cultures) ACC 60). HEK293 cells were kept in Dulbecco’s Modified Eagle’s Medium (DMEM) with Ham’s F-12 (v/v) and 15% (v/v) heat-inactivated fetal calf serum (FCS), while COS-7 cells were cultured in DMEM with 10% (v/v) FCS and 1% (v/v) Penicillin-Streptomycin. All cells were kept at 37 °C under a humidified atmosphere (5% CO2).
# NPR-11 activation was read out in the Gi/o pathway by a cAMP reporter gene assay in transiently transfected HEK293 cells as described previously. Briefly, HEK293 cells were grown to 70% confluency and transiently co-transfected with the receptor plasmid (2 μg) and the reporter gene plasmid pGL4.29 [luc2P/CRE/Hygro] (Promega; 2 μg) with MetafectenePro (Biontex). Cells were then re-seeded into 384-well plates. On the next day, the medium was removed, and the cells were stimulated with peptide solution (20 μl) containing 5 μM forskolin (stimulating intracellular cAMP levels) in DMEM and incubated for 4 h. Luciferase substrate OneGlo in lysis buffer (Promega) was added and incubated for 5 min. Luminescence was measured in a microplate reader (Tecan Spark). […]
# [2] = target: T2, Nluc::NPR-11 (Caenorhabditis elegans, UniProt Q18179); assay: biochemical; assay type: binding, C. elegans
# T2 construct: expressed in transfected cells; host or cells: transgenic C. elegans (extrachromosomal array, npr-11 knockout background), incised young adult worms
# Description: (§1) All measurements were conducted using synchronized young adult worms (1 day post L4). Individuals were washed twice with HBSS (Hanks’ balanced salt solution with 25 mM HEPES, pH 7.4, 37 °C) and the number of worms/ μl was calculated.
# (§2) For luminescence measurements of intact worms, animals (1; 10; 50; 100 or 500) were directly transferred into the wells of a white flat-bottom 384-well plate in 50 μl HBSS buffer. Worms to be cut were pre-washed with M9 + 0.1% Tween to avoid sticking of worms to the dish and subsequently transferred in 2 ml of HBSS. Incisions were made in the middle of the body with a scalpel blade and worms were immediately afterwards transferred with a glass pipette into HBSS buffer on ice. For mechanically cracking, a worm suspension was homogenized in tubes with 150 μl HBSS and six glass beads (Ø = 3 mm) using with a Precellys homogenizer (Bertin instruments, France) for 40 s at 5000 rpm. Samples were placed on ice until further usage.
# For BRET binding assays in vivo, the nanoluciferase (Nluc) was applied as energy donor and either peptides labeled with the TAM fluorophore or the mNeonGreen fluorescent protein fused to a receptor served as acceptor.
# 30 Nluc-expressing worms with incisions in 50 μl BRET buffer were incubated with dissolving buffer or peptide solutions of final concentrations ranging from 0.05–10 μM in a 384-well plate. During a 25 min incubation with gentle shaking, 10 μl Nano-Glo Live Cell Reagent (N2011, Promega, USA) of a 5x stock were added according to manufacturer’s instructions after 15 min to each well. Competition-binding assays were performed similarly, but additionally, unlabeled peptide (final concentrations 0.016–10 μM) was pipetted into each well and 5 μl of a 10x stock Nano-Glo Live cell reagent was applied after 15 min.
# Luminescence (L) and fluorescence (F) were detected with a microplate plate reader (Tecan Spark) using the following filter set: donor = 430–470 nm, acceptor = 550–700 nm with 1000 ms integration time. BRET was calculated by dividing F values by L values. For each experiment, the background signal of donor-only cells was subtracted, such that the BRET ratio at 0 μM ligand equals 0.00. In Fig. 3B (left) and Fig. 3D, the mean of n = 4 (NPR-11) or n = 3 (LAT-1) independent, individually background-corrected single experiments is presented.
# [3] = target: T1, NPR-11; details: read-out: inhibition binding constant Ki; TAM-FLP-34-1 as fluorescent tracer; ref [35]; cited from earlier work
# [4] = target: T2, Nluc::NPR-11; assay: biochemical; assay type: binding, C. elegans; remark: listed apart in the source
# Description: as §1
# as §2, with “usage. […]” for “usage.”
# Luminescence (L) and fluorescence (F) were detected with a microplate plate reader (Tecan Spark) using the following filter set: donor = 430–470 nm, acceptor = 550–700 nm with 1000 ms integration time. BRET was calculated by dividing F values by L values. […]
# [5] = test system: NPR-11::Nluc; assay: Enhanced bystander BRET in vivo, NPR-11::Nluc and CAAX::mNG (Fig. 4C); parameters: species or system C. elegans
# Description: Luminescence levels depended on the used strain, reaching (without ligand) approximately 2000 AU in Nluc::npr-11 animals and up to 32,000 AU in Nluc::lat-1 expressing worms. For enhanced bystander BRET analyses, 30 cut worms (APR716 and APR718) in 50 μl HBSS buffer were incubated for 10 min with 10 μl of Nano-Glo Live Cell Reagent (5x stock). Luminescence and fluorescence were measured once prior to peptide stimulation. Afterwards, FLP-34-1 (final concentration 5 μM) or H2O with 0.5% BSA and 2.5% DMSO as control were added to each well and luminescence and fluorescence was measured over the course of 80 min. The acceptor filter for this setting was altered to 505–605 nm, while the donor filter remained at 430–470 nm, as before.
Compound,EC50 [1] [nM],Kd [2] [nM],Ki [3] [nM],Ki [4] [nM],time after which BRET increases again ([5]; 5 μM FLP-34-1) [min],change of bystander BRET signal over time ([5]; 5 μM FLP-34-1 vs untreated controls)
CC[C@H](C)[C@H](NC(=O)[C@H](C)NC(=O)[C@H](CO)NC(=O)[C@H](C)NC(=O)[C@H](Cc1ccccc1)NC(=O)[C@@H](NC(=O)[C@H](CO)NC(=O)[C@@H](NC(=O)[C@H](CC(=O)O)NC(=O)[C@H](C)NC(=O)c1ccc2c(c1)C(=O)OC21c2ccc(N(C)C)cc2Oc2cc(N(C)C)ccc21)[C@@H](C)CC)[C@@H](C)O)C(=O)N[C@@H](CC(N)=O)C(=O)N[C@@H](CC(N)=O)C(=O)N[C@@H](C)C(=O)NCC(=O)N[C@@H](CCCNC(=N)N)C(=O)N[C@@H](CC(C)C)C(=O)N[C@@H](CCCNC(=N)N)C(=O)N[C@@H](Cc1ccc(O)cc1)C(N)=O [TAM-FLP-34-1] (5TAMRA-ADISTFASAINNAGRLRY-NH2),0.5,1400,,,,
ADISTFASAINNAGRLRY-NH2 [FLP-34-1],2.3,,107,1100,> 70,decrease of BRET signal
